Results published in ChEMBL document CHEMBL6127132, “Design, Synthesis, and Biological Evaluation of Novel Diaminopyrimidine Macrocycles as Fourth Generation Reversible EGFR Inhibitors That Overcome Clinical Resistance to Osimertinib Mediated by C797S Mutation” (J Med Chem, 2024).

What was measured:
[1] = Cmax in male SPF Sprague-Dawley rat at 2 mg/kg, iv measured after 24 hrs by LC-MS/MS analysis; type: ADME, organism-based; conditions: in vivo
[2] = Half-life in male SPF Sprague-Dawley rat at 2 mg/kg, iv measured after 24 hrs by LC-MS/MS analysis; type: ADME, organism-based; conditions: in vivo
[3] = molecular target: Epidermal growth factor receptor (Mus musculus) (UniProt Q01279); assay: Inhibition of EGFR downstream signaling in mouse BaF3 cells harboring EGFR L858R/T790M/C797S mutant assessed as reduction in phosphorylated ERK level preincubated for 2 hrs followed by EGF stimulation and measured after 15 mins by Western blot analysis; type: cell-based; conditions: dose 1-1000 nM, time 135.0 min
Chain of Epidermal growth factor receptor (Mus musculus) (Q01279 whole entry): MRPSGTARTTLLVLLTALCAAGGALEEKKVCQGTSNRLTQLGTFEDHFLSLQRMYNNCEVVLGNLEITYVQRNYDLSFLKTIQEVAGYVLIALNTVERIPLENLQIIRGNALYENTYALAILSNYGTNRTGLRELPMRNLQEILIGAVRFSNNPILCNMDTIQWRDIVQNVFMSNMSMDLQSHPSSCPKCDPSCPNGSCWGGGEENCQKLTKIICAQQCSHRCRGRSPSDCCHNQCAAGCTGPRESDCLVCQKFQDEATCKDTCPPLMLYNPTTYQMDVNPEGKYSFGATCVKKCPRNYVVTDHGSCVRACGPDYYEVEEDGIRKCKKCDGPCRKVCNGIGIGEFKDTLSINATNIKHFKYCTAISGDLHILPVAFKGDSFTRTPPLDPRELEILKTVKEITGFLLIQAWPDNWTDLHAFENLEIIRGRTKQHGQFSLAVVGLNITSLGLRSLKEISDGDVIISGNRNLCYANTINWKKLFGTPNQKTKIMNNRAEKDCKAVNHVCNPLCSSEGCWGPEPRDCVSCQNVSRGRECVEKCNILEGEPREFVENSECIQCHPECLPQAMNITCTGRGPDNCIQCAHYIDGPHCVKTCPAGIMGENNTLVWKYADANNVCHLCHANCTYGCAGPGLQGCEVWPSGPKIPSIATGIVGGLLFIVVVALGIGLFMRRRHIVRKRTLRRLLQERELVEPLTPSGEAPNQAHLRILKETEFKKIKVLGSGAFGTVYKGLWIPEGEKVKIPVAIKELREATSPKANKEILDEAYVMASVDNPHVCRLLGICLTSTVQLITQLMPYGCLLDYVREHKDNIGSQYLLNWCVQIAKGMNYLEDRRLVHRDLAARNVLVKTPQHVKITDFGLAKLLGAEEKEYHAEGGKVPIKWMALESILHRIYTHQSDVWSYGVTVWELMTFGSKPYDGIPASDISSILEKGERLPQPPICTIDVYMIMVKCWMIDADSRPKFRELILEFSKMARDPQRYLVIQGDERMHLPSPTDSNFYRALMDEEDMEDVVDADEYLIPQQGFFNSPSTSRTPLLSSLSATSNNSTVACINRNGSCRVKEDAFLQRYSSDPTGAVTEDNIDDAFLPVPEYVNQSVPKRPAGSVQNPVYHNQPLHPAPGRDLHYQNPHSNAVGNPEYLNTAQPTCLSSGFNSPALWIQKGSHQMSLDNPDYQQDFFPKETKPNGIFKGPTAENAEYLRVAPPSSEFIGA

[4] = Toxicity in female BALB/c nu/nu mouse implanted with mouse BaF3 cells harboring 19del/T790M/C797S mutant assessed as body weight loss at 20 mg/kg, po administered once daily for 9 days; type: organism-based; conditions: in vivo, 216 h, time 9 day
[5] = Induction of apoptosis in mouse BaF3 cells harboring EGFR 19del/T790M/C797S mutant assessed as late apoptotic cells at 100 nM incubated for 48 hrs by Annexin V-FITC/PI staining based flow cytometric analysis (reference value: 2.29 %); type: functional
BaF3 [6] = assay: Induction of apoptosis in mouse BaF3 cells harboring EGFR 19del/T790M/C797S mutant assessed as caspase 3 cleavage incubated for 48 hrs by Western blot analysis; type: functional, cell-based; conditions: dose 30-1000 nM
[7] = Clearance in male SPF Sprague-Dawley rat at 2 mg/kg, iv measured after 24 hrs by LC-MS/MS analysis; type: ADME, organism-based; conditions: in vivo
[8] = Tmax in male SPF Sprague-Dawley rat at 10 mg/kg, po measured after 24 hrs by LC-MS/MS analysis; type: ADME, organism-based; conditions: in vivo
[9] = MRT (0 to t) in male SPF Sprague-Dawley rat at 2 mg/kg, iv measured after 24 hrs by LC-MS/MS analysis; type: ADME, organism-based; conditions: in vivo
BaF3 [10] = assay: cells; conditions: Mus musculus, BaF3, 72 h
[11] = Tmax in male SPF Sprague-Dawley rat at 2 mg/kg, iv measured after 24 hrs by LC-MS/MS analysis; type: ADME, organism-based; conditions: in vivo
[12] = Induction of apoptosis in mouse BaF3 cells harboring EGFR 19del/T790M/C797S mutant assessed as late apoptotic cells at 1000 nM incubated for 48 hrs by Annexin V-FITC/PI staining based flow cytometric analysis (reference value: 2.29 %); type: functional
A-431 = assay: cells; conditions: Homo sapiens, A-431, 72 h
Description: Antiproliferative activity against human A-431 cells harboring wildtype EGFR assessed as inhibition of cell proliferation measured after 72 hrs by SRB assay

[13] = AUC (0 to infinity) in male SPF Sprague-Dawley rat at 2 mg/kg, iv measured after 24 hrs by LC-MS/MS analysis; type: ADME, organism-based; conditions: in vivo
[14] = Induction of apoptosis in mouse BaF3 cells harboring EGFR 19del/T790M/C797S mutant assessed as late apoptotic cells at 300 nM incubated for 48 hrs by Annexin V-FITC/PI staining based flow cytometric analysis (reference value: 2.29 %); type: functional
[15] = Oral bioavailability in male SPF Sprague-Dawley rat at 10 mg/kg measured after 24 hrs by LC-MS/MS analysis; type: ADME, organism-based; conditions: in vivo
BaF3 [16] = assay: cells; conditions: Mus musculus, BaF3, 72 h; remark: listed apart in the source
[17] = AUC (0 to t) in male SPF Sprague-Dawley rat at 10 mg/kg, po measured after 24 hrs by LC-MS/MS analysis; type: ADME, organism-based; conditions: in vivo
[18] = Induction of apoptosis in mouse BaF3 cells harboring EGFR 19del/T790M/C797S mutant assessed as early apoptotic cells at 1000 nM incubated for 48 hrs by Annexin V-FITC/PI staining based flow cytometric analysis (reference value: 0.46 %); type: functional
[19] = Induction of apoptosis in mouse BaF3 cells harboring EGFR 19del/T790M/C797S mutant assessed as early apoptotic cells at 30 nM incubated for 48 hrs by Annexin V-FITC/PI staining based flow cytometric analysis (reference value: 0.46 %); type: functional
[20] = Antiproliferative activity against mouse BaF3 cells assessed as inhibition of cell proliferation incubated for 72 hrs by CCK-8 assay; type: toxicity, cell-based
[21] = MRT (0 to t) in male SPF Sprague-Dawley rat at 10 mg/kg, po measured after 24 hrs by LC-MS/MS analysis; type: ADME, organism-based; conditions: in vivo
[22] = molecular target: Epidermal growth factor receptor (Mus musculus) (UniProt Q01279); assay: Inhibition of EGFR phosphorylation in mouse BaF3 cells harboring EGFR L858R/T790M/C797S mutant preincubated for 2 hrs followed by EGF stimulation and measured after 15 mins by Western blot analysis; type: cell-based; conditions: dose 1-1000 nM, time 135.0 min
[23] = Toxicity in female BALB/c nu/nu mouse implanted with mouse BaF3 cells harboring 19del/T790M/C797S mutant assessed as mortality at 20 mg/kg, po administered once daily for 9 days; type: organism-based; conditions: in vivo, 216 h, time 9 day
BaF3 [24] = assay: Antitumor activity against mouse BaF3 cells harboring 19del/T790M/C797S mutant implanted in female BALB/c nu/nu mouse assessed as tumor growth inhibition at 20 mg/kg, po administered once daily for 9 days relative to control; type: functional; conditions: BaF3, 216 h, time 9 day, read-out: TGI
[25] = Cmax in male SPF Sprague-Dawley rat at 10 mg/kg, po measured after 24 hrs by LC-MS/MS analysis; type: ADME, organism-based; conditions: in vivo
[26] = AUC (0 to infinity) in male SPF Sprague-Dawley rat at 10 mg/kg, po measured after 24 hrs by LC-MS/MS analysis; type: ADME, organism-based; conditions: in vivo
[27] = molecular target: Epidermal growth factor receptor (Mus musculus) (UniProt Q01279); assay: Inhibition of EGFR phosphorylation in mouse BaF3 cells harboring EGFR 19del/T790M/C797S mutant preincubated for 2 hrs followed by EGF stimulation and measured after 15 mins by Western blot analysis; type: cell-based; conditions: dose 1-1000 nM, time 135.0 min
[28] = Induction of apoptosis in mouse BaF3 cells harboring EGFR 19del/T790M/C797S mutant assessed as early apoptotic cells at 300 nM incubated for 48 hrs by Annexin V-FITC/PI staining based flow cytometric analysis (reference value: 0.46 %); type: functional
[29] = Induction of apoptosis in mouse BaF3 cells harboring EGFR 19del/T790M/C797S mutant assessed as early apoptotic cells at 100 nM incubated for 48 hrs by Annexin V-FITC/PI staining based flow cytometric analysis (reference value: 0.46 %); type: functional
[30] = Half-life in male SPF Sprague-Dawley rat at 10 mg/kg, po measured after 24 hrs by LC-MS/MS analysis; type: ADME, organism-based; conditions: in vivo
[31] = Induction of apoptosis in mouse BaF3 cells harboring EGFR 19del/T790M/C797S mutant assessed as late apoptotic cells at 30 nM incubated for 48 hrs by Annexin V-FITC/PI staining based flow cytometric analysis (reference value: 2.29 %); type: functional
[32] = AUC (0 to t) in male SPF Sprague-Dawley rat at 2 mg/kg, iv measured after 24 hrs by LC-MS/MS analysis; type: ADME, organism-based; conditions: in vivo
cells = conditions: Homo sapiens, PC9-OR, 72 h
[33] = molecular target: Epidermal growth factor receptor (Mus musculus) (UniProt Q01279); assay: Inhibition of EGFR downstream signaling in mouse BaF3 cells harboring EGFR 19del/T790M/C797S mutant assessed as reduction in phosphorylated ERK level preincubated for 2 hrs followed by EGF stimulation and measured after 15 mins by Western blot analysis; type: cell-based; conditions: dose 1-1000 nM, time 135.0 min

COc1cc(N2CCOCC2)c2cc1Nc1ncc(C)c(n1)Nc1ccc(cc1P(C)(C)=O)OCCCn1cc-2cn1
Cmax [1]: 2150 ng/mL
half-life [2]: 332 min
inhibition [3]: Dose-Dependent Effect
Activity [4]: Non-Toxic
Activity [5]: 3.44%
Activity (BaF3 [6]): Dose-Dependent Effect
clearance [7]: 4.27 mL/min/kg
Tmax [8]: 1.67 h
MRT last at 24 h [9]: 3.89 h
IC50 (BaF3 [10]): 41 nM
Tmax [11]: 4.98 min
Activity [12]: 17.31%
IC50 (A-431): 246 nM
AUC(0-inf) [13]: 7900 ng·h/mL
Activity [14]: 16.34%
bioavailability [15]: 47%
IC50 (BaF3 [16]): 52 nM
AUC(0-t) at 24 h [17]: 18000 ng·h/mL
Activity [18]: 71.63%
Activity [19]: 2.26%
IC50 at 72 h [20]: 2100 nM
MRT last at 24 h [21]: 5.86 h
inhibition [22]: Dose-Dependent Effect
Activity [23]: Non-Toxic
inhibition in vivo at 20 mg/kg (BaF3 [24]): 65.4%
Cmax [25]: 1820 ng/mL
AUC(0-inf) [26]: 18500 ng·h/mL
inhibition [27]: Dose-Dependent Effect
Activity [28]: 34.23%
Activity [29]: 5.98%
half-life [30]: 259 min
Activity [31]: 1.64%
AUC(0-t) at 24 h [32]: 7630 ng·h/mL
IC50 (cells): 56 nM
inhibition [33]: Dose-Dependent Effect
